According to PMC10967822, “Antimicrobial Indole-3-Carboxamido-Polyamine Conjugates Target Bacterial Membranes and Are Antibiotic Potentiators” (Biomolecules, 2024):
In brackets after ≈: the same amount, converted by molar mass.

Experiments:
[1] = test system: P. aeruginosa ATCC 27853; assay: Doxycycline potentiation against P. aeruginosa; format: cell-based, Pseudomonas aeruginosa; conditions: doxycycline at 2 µg/mL (4.5 µM); for Dox/Pa fold-change (intrinsic MIC / combination MIC): P. aeruginosa ATCC 27853; for Dox/Pa: concentration required to restore doxycycline activity (combination MIC): P. aeruginosa ATCC 27853, mean n = 3
From the text: (§1) These measurements were independently repeated in triplicate.

[2] = test system: K. pneumoniae ATCC 700603; assay: MIC, broth microdilution (CO-ADD), K. pneumoniae; conditions: top dose 32 µg/mL
[3] = test system: MRSA ATCC 43300; assay: MIC, broth microdilution (CO-ADD), MRSA; format: cell-based, methicillin-resistant S. aureus; conditions: Staphylococcus aureus; MRSA ATCC 43300; top dose 32 µg/mL; read-out: MIC MRSA
[4] = test system: human red blood cells; assay: Hemolytic assay; format: cell-based; conditions: 10% hemolytic activity, mean n = 2
Outline: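 Compounds were applied to saline-washed human red blood cells at 0.5 × 10^8 cells/mL, 37 °C, 1 h. Lysis was measured by supernatant absorbance at 405 nm, and concentrations giving 10% and 50% haemolysis were obtained by variable-slope curve fitting.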

[5] = test system: A. baumannii ATCC 19606; assay: MIC, broth microdilution (CO-ADD), A. baumannii; format: cell-based, Acinetobacter baumannii; conditions: Acinetobacter baumannii, ATCC19606, top dose 32 µg/mL
[6] = test system: C. albicans ATCC 90028; assay: Antifungal MIC (CO-ADD), C. albicans; format: cell-based; conditions: Candida albicans, ATCC90028, top dose 32 µg/mL
Outline: (§2)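 MIC for C. neoformans determined by OD570–600 following a further 3 h with resazurin (0.006% final), whereas C. albicans was read directly at OD530. Both grown static in YNB broth at 2.5 × 10^3 CFU/mL final inoculum, 35 °C for 36 h, from colonies cultured on YPD agar 3 days at 30 °C.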

[7] = test system: E. coli ATCC 25922; assay: Erythromycin potentiation against E. coli; format: cell-based, Escherichia coli; conditions: erythromycin at 2 µg/mL (2.7 µM); for Erythro/Ec fold-change (intrinsic MIC / combination MIC): E. coli; for Erythro/Ec: concentration required to restore erythromycin activity (combination MIC): mean n = 3
From the text: as §1

[8] = Cytotoxicity assay (resazurin); format: cell-based; conditions: human, HEK293 cells, mean n = 2
[9] = test system: C. neoformans ATCC 208821; assay: Antifungal MIC (CO-ADD), C. neoformans; format: cell-based; conditions: Cryptococcus neoformans, ATCC208821, top dose 32 µg/mL
Outline: as §2

[10] = test system: P. aeruginosa ATCC 27853; assay: MIC, broth dilution, P. aeruginosa; format: cell-based, Pseudomonas aeruginosa; conditions: Pseudomonas aeruginosa, ATCC27853; P. aeruginosa ATCC 27853, 18 h; read-out: MIC Pa
[11] = test system: S. aureus ATCC 25923; assay: MIC, broth dilution, S. aureus; format: cell-based, Staphylococcus aureus; conditions: Staphylococcus aureus, ATCC25923; S. aureus ATCC 25923, 18 h; read-out: MIC Sa
[12] = test system: E. coli ATCC 25922; assay: MIC, broth dilution, E. coli; format: cell-based, Escherichia coli; conditions: Escherichia coli, ATCC25922; E. coli ATCC 25922, 18 h

Dox/Pa fold-change (intrinsic MIC / combination MIC) [1]	Dox/Pa: concentration required to restore doxycycline activity (combination MIC) [1]	MIC Kp [2]	MIC [3]	MIC [5]	MIC [6]	Erythro/Ec fold-change (intrinsic MIC / combination MIC) [7]	Erythro/Ec: concentration required to restore erythromycin activity (combination MIC) [7]	MIC [9]	MIC [10]	MIC [11]	MIC [12]	Compound	Hemolysis HC10 [4]	IC50 at 20 h [8]
> 8 fold	30.5 µM	>39 µM	2.44 µM	> 39 µM	> 39 µM	1 fold	244 µM	≤ 0.31 µM	> 244 µM	122 µM	244 µM	COc1cccc2c(C(=O)NCCCNCCCCCCCNCCCNC(=O)c3c[nH]c4c(OC)cccc34)c[nH]c12.O=C(O)C(F)(F)F.O=C(O)C(F)(F)F [Compound 17c]	>39 µM	> 39 µM
> 4 fold	60.0 µM	>38 µM	≤ 0.3 µM	> 38 µM	> 38 µM	2 fold	120 µM	≤ 0.3 µM	> 240 µM	120 µM (≈ 72.6 µg/mL)	240 µM (≈ 145 µg/mL)	COc1cccc2c(C(=O)NCCCNCCCCCCCCNCCCNC(=O)c3c[nH]c4c(OC)cccc34)c[nH]c12 [Compound 17d]	>38 µM	> 38 µM
> 4 fold	58.1 µM	>37 µM	≤ 0.29 µM	> 37 µM	> 37 µM	1 fold	> 232 µM	≤ 0.29 µM	> 232 µM	232 µM	> 232 µM	COc1cccc2c(C(=O)NCCCNCCCCCCCCCCNCCCNC(=O)c3c[nH]c4c(OC)cccc34)c[nH]c12.O=C(O)C(F)(F)F.O=C(O)C(F)(F)F [Compound 17e]	>37 µM	> 37 µM
4 fold	56.2 µM	>36 µM	≤ 0.28 µM	> 36 µM	4.5 µM	0.5 fold	56.2 µM	≤ 0.28 µM	225 µM	7.03 µM	28.1 µM	COc1cccc2c(C(=O)NCCCNCCCCCCCCCCCCNCCCNC(=O)c3c[nH]c4c(OC)cccc34)c[nH]c12.O=C(O)C(F)(F)F.O=C(O)C(F)(F)F [Compound 17f]	>36 µM	> 36 µM
> 8 fold	32.4 µM	>41 µM	> 41 µM	> 41 µM	> 41 µM	4 fold	32.4 µM	≤ 0.32 µM	> 259 µM	129 µM (≈ 70.3 µg/mL)	129 µM (≈ 70.3 µg/mL)	Cc1cccc2c(C(=O)NCCCNCCCCCCNCCCNC(=O)c3c[nH]c4c(C)cccc34)c[nH]c12 [Compound 18b]	>41 µM	> 41 µM
16 fold	15.9 µM	>41 µM	≤ 0.32 µM	> 41 µM	> 41 µM	1 fold	> 254 µM	≤ 0.32 µM	254 µM (≈ 142 µg/mL)	> 254 µM	> 254 µM	Cc1cccc2c(C(=O)NCCCNCCCCCCCNCCCNC(=O)c3c[nH]c4c(C)cccc34)c[nH]c12 [Compound 18c]	>41 µM	> 41 µM
8 fold	31.2 µM	>40 µM	≤ 0.31 µM	> 40 µM	> 40 µM	1 fold	250 µM	≤ 0.31 µM	250 µM (≈ 143 µg/mL)	> 250 µM	> 250 µM	Cc1cccc2c(C(=O)NCCCNCCCCCCCCNCCCNC(=O)c3c[nH]c4c(C)cccc34)c[nH]c12 [Compound 18d]	>40 µM	> 40 µM
4 fold	15.1 µM	>39 µM	≤ 0.3 µM	> 39 µM	4.83 µM (≈ 2.9 µg/mL)	2 fold	15.1 µM	≤ 0.3 µM	60.3 µM (≈ 36.2 µg/mL)	30.2 µM (≈ 18.1 µg/mL)	30.2 µM (≈ 18.1 µg/mL)	Cc1cccc2c(C(=O)NCCCNCCCCCCCCCCNCCCNC(=O)c3c[nH]c4c(C)cccc34)c[nH]c12 [Compound 18e]	>39 µM	> 39 µM
4 fold	29.2 µM	>37 µM	≤ 0.29 µM	9.33 µM	≤ 0.29 µM	1 fold	116.7 µM	≤ 0.29 µM	117 µM	117 µM	117 µM	Cc1cccc2c(C(=O)NCCCNCCCCCCCCCCCCNCCCNC(=O)c3c[nH]c4c(C)cccc34)c[nH]c12.O=C(O)C(F)(F)F.O=C(O)C(F)(F)F [Compound 18f]	>37 µM	> 37 µM
